Activity calls are given as the source filed them. For most assays here, no stated cut-off is given here; in the data, actives have a measured Kd and inactives only a lower limit.
Assays:
[1] = target: RAC-gamma serine/threonine-protein kinase (Homo sapiens, UniProt Q9Y243)
[2] = target: Tyrosine-protein kinase FRK (Homo sapiens, UniProt P42685)
[3] = target: T1, Mitogen-activated protein kinase kinase kinase kinase 3 (Homo sapiens, UniProt Q8IVH8)
T1 sequence (Q8IVH8 whole entry): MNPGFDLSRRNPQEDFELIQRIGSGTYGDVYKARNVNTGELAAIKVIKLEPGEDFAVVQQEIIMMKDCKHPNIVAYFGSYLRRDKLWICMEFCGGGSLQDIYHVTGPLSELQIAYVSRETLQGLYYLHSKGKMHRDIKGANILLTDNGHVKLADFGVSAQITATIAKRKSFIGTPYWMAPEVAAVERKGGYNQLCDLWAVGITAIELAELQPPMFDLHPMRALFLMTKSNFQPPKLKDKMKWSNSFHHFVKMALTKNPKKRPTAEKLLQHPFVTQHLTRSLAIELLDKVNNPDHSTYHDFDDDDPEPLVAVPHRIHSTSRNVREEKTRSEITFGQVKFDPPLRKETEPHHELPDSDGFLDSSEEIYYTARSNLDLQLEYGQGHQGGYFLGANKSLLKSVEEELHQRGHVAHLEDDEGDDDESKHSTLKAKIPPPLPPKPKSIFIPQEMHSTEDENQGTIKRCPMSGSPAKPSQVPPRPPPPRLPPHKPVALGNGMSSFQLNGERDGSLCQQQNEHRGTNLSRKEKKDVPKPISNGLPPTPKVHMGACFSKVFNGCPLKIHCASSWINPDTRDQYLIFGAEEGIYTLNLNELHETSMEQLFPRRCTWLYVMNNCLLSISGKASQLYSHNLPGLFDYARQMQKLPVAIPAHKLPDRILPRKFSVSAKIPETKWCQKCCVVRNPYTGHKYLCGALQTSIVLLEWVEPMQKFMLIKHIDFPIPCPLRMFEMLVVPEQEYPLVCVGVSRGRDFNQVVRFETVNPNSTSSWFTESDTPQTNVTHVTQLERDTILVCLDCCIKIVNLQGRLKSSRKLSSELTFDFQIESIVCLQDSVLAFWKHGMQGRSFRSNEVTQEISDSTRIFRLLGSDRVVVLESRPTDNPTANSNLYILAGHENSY

[4] = target: T2, Serine/threonine-protein kinase Nek9 (Homo sapiens, UniProt Q8TD19)
T2 sequence (Q8TD19 whole entry): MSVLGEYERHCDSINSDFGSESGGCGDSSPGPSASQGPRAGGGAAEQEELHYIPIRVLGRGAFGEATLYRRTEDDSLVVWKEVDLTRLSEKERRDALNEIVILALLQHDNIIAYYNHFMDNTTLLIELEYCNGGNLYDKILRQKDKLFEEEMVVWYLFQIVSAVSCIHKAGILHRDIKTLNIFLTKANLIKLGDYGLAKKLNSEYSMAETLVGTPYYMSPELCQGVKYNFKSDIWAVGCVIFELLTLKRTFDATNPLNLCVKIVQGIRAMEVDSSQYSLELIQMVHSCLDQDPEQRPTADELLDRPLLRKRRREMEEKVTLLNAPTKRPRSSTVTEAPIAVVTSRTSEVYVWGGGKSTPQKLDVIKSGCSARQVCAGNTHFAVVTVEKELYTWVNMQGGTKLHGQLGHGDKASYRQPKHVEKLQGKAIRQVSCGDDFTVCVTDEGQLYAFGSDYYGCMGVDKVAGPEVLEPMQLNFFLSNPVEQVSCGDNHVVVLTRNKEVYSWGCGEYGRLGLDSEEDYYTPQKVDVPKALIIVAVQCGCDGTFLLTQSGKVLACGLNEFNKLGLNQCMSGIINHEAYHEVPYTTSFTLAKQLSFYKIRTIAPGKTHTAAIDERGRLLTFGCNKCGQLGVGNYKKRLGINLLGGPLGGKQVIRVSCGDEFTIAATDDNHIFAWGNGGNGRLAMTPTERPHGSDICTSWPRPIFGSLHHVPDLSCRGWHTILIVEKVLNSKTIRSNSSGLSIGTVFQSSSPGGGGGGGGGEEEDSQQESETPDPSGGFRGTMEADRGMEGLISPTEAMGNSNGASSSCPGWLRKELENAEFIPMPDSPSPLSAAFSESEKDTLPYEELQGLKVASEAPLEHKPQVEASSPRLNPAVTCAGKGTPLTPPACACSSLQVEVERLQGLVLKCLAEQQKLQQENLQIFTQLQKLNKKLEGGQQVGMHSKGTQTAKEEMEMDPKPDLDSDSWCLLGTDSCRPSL

[5] = target: 5'-AMP-activated protein kinase catalytic subunit alpha-1 (Homo sapiens, UniProt Q13131)
5'-AMP-activated protein kinase catalytic subunit alpha-1, sequence (Q13131 whole entry): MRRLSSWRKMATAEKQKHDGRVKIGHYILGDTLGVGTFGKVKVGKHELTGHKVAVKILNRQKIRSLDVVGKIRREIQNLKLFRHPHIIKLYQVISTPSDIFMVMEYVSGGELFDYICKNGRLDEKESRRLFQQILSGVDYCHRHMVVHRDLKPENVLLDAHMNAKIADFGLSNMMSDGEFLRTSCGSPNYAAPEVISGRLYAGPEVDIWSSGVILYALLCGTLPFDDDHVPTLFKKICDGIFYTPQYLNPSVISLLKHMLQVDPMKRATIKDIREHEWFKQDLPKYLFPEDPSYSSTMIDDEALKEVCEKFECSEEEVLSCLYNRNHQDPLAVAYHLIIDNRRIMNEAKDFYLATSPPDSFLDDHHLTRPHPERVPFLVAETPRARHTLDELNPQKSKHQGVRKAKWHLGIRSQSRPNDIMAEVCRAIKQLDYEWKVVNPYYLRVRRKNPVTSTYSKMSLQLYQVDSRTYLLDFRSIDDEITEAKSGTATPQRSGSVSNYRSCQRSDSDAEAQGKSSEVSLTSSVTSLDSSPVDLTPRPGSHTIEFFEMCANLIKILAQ

[6] = target: Protein kinase C alpha type (Homo sapiens, UniProt P17252)
Septin-9 = target: T3, Septin-9 (Homo sapiens, UniProt Q9UHD8)
T3 sequence (Q9UHD8 whole entry): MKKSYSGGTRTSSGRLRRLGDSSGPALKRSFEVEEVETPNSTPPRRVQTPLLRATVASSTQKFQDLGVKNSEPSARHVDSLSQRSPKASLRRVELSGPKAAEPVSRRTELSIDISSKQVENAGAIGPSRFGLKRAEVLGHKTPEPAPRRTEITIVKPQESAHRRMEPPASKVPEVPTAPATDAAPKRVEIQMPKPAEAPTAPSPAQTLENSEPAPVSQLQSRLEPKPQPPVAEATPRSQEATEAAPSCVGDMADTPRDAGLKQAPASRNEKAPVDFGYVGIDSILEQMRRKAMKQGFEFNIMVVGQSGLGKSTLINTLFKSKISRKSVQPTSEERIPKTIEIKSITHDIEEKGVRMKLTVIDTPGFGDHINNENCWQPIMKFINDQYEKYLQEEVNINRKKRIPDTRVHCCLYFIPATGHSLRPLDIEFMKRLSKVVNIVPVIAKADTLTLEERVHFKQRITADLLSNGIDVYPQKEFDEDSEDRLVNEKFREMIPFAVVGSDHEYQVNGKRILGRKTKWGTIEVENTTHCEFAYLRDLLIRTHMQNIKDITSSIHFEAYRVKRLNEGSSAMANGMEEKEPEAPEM

[7] = target: T4, EKC/KEOPS complex subunit TP53RK (Homo sapiens, UniProt Q96S44)
T4 sequence (Q96S44 whole entry): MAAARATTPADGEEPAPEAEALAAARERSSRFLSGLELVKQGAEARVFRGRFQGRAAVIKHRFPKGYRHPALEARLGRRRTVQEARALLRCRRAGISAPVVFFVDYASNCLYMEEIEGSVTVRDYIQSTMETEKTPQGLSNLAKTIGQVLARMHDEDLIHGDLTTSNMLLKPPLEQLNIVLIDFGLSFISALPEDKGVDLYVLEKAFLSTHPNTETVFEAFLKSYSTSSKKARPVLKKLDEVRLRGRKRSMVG

[8] = target: Hepatocyte growth factor receptor (Homo sapiens, UniProt P08581)
Hepatocyte growth factor receptor, sequence (P08581 whole entry): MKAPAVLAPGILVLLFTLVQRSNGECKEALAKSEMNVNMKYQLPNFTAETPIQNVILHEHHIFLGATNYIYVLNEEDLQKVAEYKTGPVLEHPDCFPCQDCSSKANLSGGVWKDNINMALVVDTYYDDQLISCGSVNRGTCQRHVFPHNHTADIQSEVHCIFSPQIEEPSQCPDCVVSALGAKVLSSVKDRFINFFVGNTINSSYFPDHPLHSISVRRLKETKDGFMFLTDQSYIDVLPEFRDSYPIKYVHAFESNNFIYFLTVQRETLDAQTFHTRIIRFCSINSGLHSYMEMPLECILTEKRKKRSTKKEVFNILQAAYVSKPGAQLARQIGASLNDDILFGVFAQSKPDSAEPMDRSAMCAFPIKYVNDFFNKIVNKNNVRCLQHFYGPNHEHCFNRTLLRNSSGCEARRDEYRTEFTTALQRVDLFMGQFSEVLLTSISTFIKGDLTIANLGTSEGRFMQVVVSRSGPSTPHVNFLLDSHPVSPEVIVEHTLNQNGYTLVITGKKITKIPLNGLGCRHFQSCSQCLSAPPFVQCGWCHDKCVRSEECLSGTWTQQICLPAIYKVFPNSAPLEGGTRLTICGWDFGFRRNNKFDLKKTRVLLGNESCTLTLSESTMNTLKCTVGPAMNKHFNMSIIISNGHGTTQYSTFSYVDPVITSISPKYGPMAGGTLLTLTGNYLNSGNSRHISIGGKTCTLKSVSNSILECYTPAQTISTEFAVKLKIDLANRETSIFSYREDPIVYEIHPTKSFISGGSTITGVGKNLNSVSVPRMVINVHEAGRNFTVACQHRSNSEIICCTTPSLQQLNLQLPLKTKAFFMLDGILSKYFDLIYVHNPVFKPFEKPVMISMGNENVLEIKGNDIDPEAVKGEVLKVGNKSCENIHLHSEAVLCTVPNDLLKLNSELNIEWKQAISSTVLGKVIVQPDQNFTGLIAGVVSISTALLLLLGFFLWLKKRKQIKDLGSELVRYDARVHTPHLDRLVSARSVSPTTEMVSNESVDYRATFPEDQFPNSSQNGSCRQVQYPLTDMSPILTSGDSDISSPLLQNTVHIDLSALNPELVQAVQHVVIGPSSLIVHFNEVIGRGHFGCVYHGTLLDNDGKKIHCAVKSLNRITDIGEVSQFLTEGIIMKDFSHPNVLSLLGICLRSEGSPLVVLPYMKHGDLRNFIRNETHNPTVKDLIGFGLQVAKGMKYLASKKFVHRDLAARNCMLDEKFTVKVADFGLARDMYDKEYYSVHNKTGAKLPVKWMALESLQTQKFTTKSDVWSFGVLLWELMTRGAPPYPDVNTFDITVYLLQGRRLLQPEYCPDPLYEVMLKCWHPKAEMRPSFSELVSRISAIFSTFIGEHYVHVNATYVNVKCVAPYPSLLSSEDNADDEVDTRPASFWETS

RAC-gamma serine/threonine-protein kinase, sequence (Q9Y243 whole entry): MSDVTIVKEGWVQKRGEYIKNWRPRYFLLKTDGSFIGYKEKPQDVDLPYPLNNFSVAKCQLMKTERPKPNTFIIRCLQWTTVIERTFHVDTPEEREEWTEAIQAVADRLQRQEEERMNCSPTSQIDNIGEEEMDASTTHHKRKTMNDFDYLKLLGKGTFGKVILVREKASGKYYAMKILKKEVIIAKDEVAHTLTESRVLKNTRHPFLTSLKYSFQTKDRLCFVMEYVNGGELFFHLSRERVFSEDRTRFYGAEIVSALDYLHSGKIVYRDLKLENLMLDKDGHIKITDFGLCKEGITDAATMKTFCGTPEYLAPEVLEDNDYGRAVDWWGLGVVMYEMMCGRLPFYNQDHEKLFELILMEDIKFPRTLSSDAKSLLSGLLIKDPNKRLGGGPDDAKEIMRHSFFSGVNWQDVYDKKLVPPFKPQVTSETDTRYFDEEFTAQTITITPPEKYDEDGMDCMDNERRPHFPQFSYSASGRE
Tyrosine-protein kinase FRK, sequence (P42685 whole entry): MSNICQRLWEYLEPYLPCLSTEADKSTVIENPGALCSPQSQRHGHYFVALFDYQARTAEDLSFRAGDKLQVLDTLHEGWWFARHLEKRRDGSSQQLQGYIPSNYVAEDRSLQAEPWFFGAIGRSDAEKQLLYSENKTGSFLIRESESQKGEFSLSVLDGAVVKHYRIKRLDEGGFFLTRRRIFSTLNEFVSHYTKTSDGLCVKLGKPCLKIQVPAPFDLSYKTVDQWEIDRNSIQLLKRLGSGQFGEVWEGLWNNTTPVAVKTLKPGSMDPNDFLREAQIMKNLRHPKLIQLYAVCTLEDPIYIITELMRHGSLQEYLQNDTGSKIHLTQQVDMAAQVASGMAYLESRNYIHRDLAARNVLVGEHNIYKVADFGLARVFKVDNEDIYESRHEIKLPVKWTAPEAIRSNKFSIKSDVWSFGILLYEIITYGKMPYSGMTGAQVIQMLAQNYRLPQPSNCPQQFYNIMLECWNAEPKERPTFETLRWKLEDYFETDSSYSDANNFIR

Cn1cc(-c2cnc3ccc4ccc(CS(=O)(=O)NCc5ccccn5)cc4c(=O)c3c2)cn1 [MK-8033]
Kd [1]: > 30 µM (inactive) | Kd [2]: > 30 µM (inactive) | Kd [3]: > 30 µM (inactive) | Kd [4]: > 30 µM (inactive) | Kd [5]: > 30 µM (inactive) | Kd [6]: > 30 µM (inactive) | Kd (Septin-9): > 30 µM (inactive) | Kd [7]: > 30 µM (inactive)

Cn1cc(C2=C(c3cn(C4CCN(Cc5ccccn5)CC4)c4ccccc34)C(=O)NC2=O)c2ccccc21 [ENZASTAURIN]
Kd (Septin-9): > 30 µM (inactive) | Kd [7]: > 30 µM (inactive)

CC(C)(C)c1nc(-c2cccc(NS(=O)(=O)c3c(F)cccc3F)c2F)c(-c2ccnc(N)n2)s1 [DABRAFENIB]
Kd [2]: 0.727 µM (active) | Kd [3]: > 30 µM (inactive) | Kd [4]: 0.053 µM (active) | Kd [6]: > 30 µM (inactive) | Kd (Septin-9): > 30 µM (inactive) | Kd [7]: > 30 µM (inactive)

CCNC(=O)C#Cc1ccc2c(c1)NC(=O)/C2=C(\Nc1ccc(CN(C)C)cc1)c1ccccc1
Kd [2]: 0.736 µM (active) | Kd [3]: > 30 µM (inactive) | Kd [8]: > 30 µM (inactive) | Kd [4]: > 30 µM (inactive) | Kd [5]: 3.05 µM (active) | Kd [6]: > 30 µM (inactive) | Kd (Septin-9): > 30 µM (inactive) | Kd [7]: > 30 µM (inactive)

COc1cc(Nc2ncc3c(n2)-c2ccc(Cl)cc2C(c2c(F)cccc2OC)=NC3)ccc1C(=O)O [ALISERTIB]
Kd [3]: > 30 µM (inactive) | Kd [4]: > 30 µM (inactive) | Kd [6]: > 30 µM (inactive) | Kd (Septin-9): > 30 µM (inactive) | Kd [7]: > 30 µM (inactive)

O=C(Nc1cc(C(F)(F)F)cc(C(F)(F)F)c1)c1cc(Cl)ccc1O [IMD-0354]
Kd [2]: > 30 µM (inactive) | Kd [3]: > 30 µM (inactive) | Kd [8]: > 30 µM (inactive) | Kd [4]: > 30 µM (inactive) | Kd [6]: > 30 µM (inactive) | Kd (Septin-9): > 30 µM (inactive) | Kd [7]: > 30 µM (inactive)

N#CC[C@H](C1CCCC1)n1cc(-c2ncnc3[nH]ccc23)cn1 [RUXOLITINIB]
Kd [6]: 16.5 µM (active) | Kd (Septin-9): > 30 µM (inactive) | Kd [7]: > 30 µM (inactive)

Cc1cc(C(=O)NOCCO)c(Nc2ccc(I)cc2F)n(C)c1=O [AZD-8330]
Kd [1]: > 30 µM (inactive) | Kd [2]: > 30 µM (inactive) | Kd [3]: > 30 µM (inactive) | Kd [4]: > 30 µM (inactive) | Kd [5]: > 30 µM (inactive) | Kd [6]: > 30 µM (inactive) | Kd (Septin-9): > 30 µM (inactive) | Kd [7]: > 30 µM (inactive)

CNC(=O)c1nn(C)c2c1C(C)(C)Cc1cnc(Nc3ccc(N4CCN(C)CC4)cc3)nc1-2 [MILCICLIB]
Kd [1]: > 30 µM (inactive) | Kd [2]: 3.02 µM (active) | Kd [3]: 2.06 µM (active) | Kd [4]: 19.6 µM (active) | Kd [5]: > 30 µM (inactive) | Kd [6]: > 30 µM (inactive) | Kd (Septin-9): > 30 µM (inactive) | Kd [7]: > 30 µM (inactive)

CC(=O)NCC(=O)N1[C@@H]2CC[C@H]1c1ccc(Nc3ncc(C(F)(F)F)c(NC4CCC4)n3)cc12 [PF-03814735]
Kd [3]: 0.766 µM (active) | Kd [4]: > 30 µM (inactive) | Kd [6]: > 30 µM (inactive) | Kd (Septin-9): > 30 µM (inactive) | Kd [7]: > 30 µM (inactive)

CCCCCCCCCCCCCCCCCCOP(=O)([O-])OC1CC[N+](C)(C)CC1 [PERIFOSINE]
Kd [1]: > 30 µM (inactive) | Kd [2]: > 30 µM (inactive) | Kd [3]: > 30 µM (inactive) | Kd [4]: > 30 µM (inactive) | Kd [5]: > 30 µM (inactive) | Kd [6]: > 30 µM (inactive) | Kd (Septin-9): > 30 µM (inactive) | Kd [7]: > 30 µM (inactive)

COc1ncc(-c2ccc3nccc(-c4ccnnc4)c3c2)cc1NS(=O)(=O)c1ccc(F)cc1F [OMIPALISIB]
Kd [1]: > 30 µM (inactive) | Kd [2]: > 30 µM (inactive) | Kd [3]: > 30 µM (inactive) | Kd [4]: > 30 µM (inactive) | Kd [5]: > 30 µM (inactive) | Kd [6]: > 30 µM (inactive) | Kd (Septin-9): > 30 µM (inactive) | Kd [7]: > 30 µM (inactive)

C[C@@H](Oc1cc(C(=O)Nc2ccc(C(=O)N3CCN(C)CC3)cc2)nnc1N)c1c(Cl)ccc(F)c1Cl
Kd [2]: > 30 µM (inactive) | Kd [3]: > 30 µM (inactive) | Kd [8]: 0.032 µM | Kd [4]: > 30 µM (inactive) | Kd [5]: > 30 µM (inactive) | Kd [6]: > 30 µM (inactive) | Kd [7]: > 30 µM (inactive)

Cc1[nH]c(/C=C2\C(=O)Nc3ccccc32)c(C)c1CCC(=O)O [ORANTINIB]
Kd [4]: > 30 µM (inactive) | Kd [6]: > 30 µM (inactive) | Kd (Septin-9): > 30 µM (inactive) | Kd [7]: > 30 µM (inactive)

CNC(=O)c1ccccc1Sc1ccc2c(/C=C/c3ccccn3)n[nH]c2c1 [AXITINIB]
Kd [6]: > 30 µM (inactive) | Kd (Septin-9): > 30 µM (inactive) | Kd [7]: > 30 µM (inactive)

C[C@@H](Oc1cc(-n2cnc3ccc(CN4CCN(C)CC4)cc32)sc1C(N)=O)c1ccccc1C(F)(F)F [GSK-461364]
Kd [6]: > 30 µM (inactive) | Kd (Septin-9): > 30 µM (inactive) | Kd [7]: > 30 µM (inactive)

CCOc1cc2ncc(C#N)c(Nc3ccc(F)c(Cl)c3)c2cc1NC(=O)/C=C/CN(C)C [PELITINIB]
Kd [1]: > 30 µM (inactive) | Kd [2]: > 30 µM (inactive) | Kd [3]: 0.189 µM (active) | Kd [4]: > 30 µM (inactive) | Kd [5]: > 30 µM (inactive) | Kd [6]: > 30 µM (inactive) | Kd (Septin-9): > 30 µM (inactive) | Kd [7]: > 30 µM (inactive)

O=C(NOCCO)c1cc(CN2OCCCC2=O)c(F)c(F)c1Nc1ccc(I)cc1F [RO-4987655]
Kd [6]: > 30 µM (inactive) | Kd (Septin-9): > 30 µM (inactive) | Kd [7]: > 30 µM (inactive)

NC(=O)c1c(OCc2c(F)cc(Br)cc2F)nsc1NC(=O)NCCCCN1CCCC1 [OSI-632]
Kd [4]: > 30 µM (inactive) | Kd [6]: > 30 µM (inactive) | Kd (Septin-9): > 30 µM (inactive) | Kd [7]: > 30 µM (inactive)

O=C(Nc1c[nH]nc1-c1nc2cc(CN3CCOCC3)ccc2[nH]1)NC1CC1 [AT-9283]
Kd [1]: > 30 µM (inactive) | Kd [2]: > 30 µM (inactive) | Kd [3]: > 30 µM (inactive) | Kd [5]: 0.05 µM (active) | Kd (Septin-9): > 30 µM (inactive) | Kd [7]: > 30 µM (inactive)

From ChEMBL document CHEMBL3991601, “The target landscape of clinical kinase drugs” (Science, 2017)
